Source: patent US20240261276A1, “NITROXOLINE FOR USE IN THE TREATMENT OF CUTANEOUS NEUROFIBROMA” (HEALX LTD, priority 2021, published 2024)

Experiments:
Tom+ NF1−/− cells [1] = test: Proliferative activity (CellTrace, cytometry) in floating sphere culture, mutant cells; assay type: cell-based, mouse; conditions: for Ratio MIFmean (proliferation): NF1−/− cells, normalised to DMSO
Method: (§1) This study uses a Nf1-KO mouse strain(Prss56Cre/+, R26tdTom/+, NF1fl/fl) developing cutaneous neurofibromas (cNFs) that faithfully recapitulates human disease (Radomska et a., 2019). In this model, simultaneous bi-allelic loss of Nf1 and expression of Tomato fluorescent reporters were targeted into glial-stem like cells at the origin of cNFs. The assay was performed ex vivo using non-adherent cells in which Tomato expressing Nf1−/− and Nf1+/− stem-like cells from skin can be amplified, and their properties further characterized. […] In this system, Nf1−/− cells express high levels of p-ERK (as expected due to the permanent activation of the RAS pathway), proliferate much faster compared to controls and preserve the capacity to reform spheres after dissociation and re-plating.
(§2) This in vitro culture system uses Tomato (Tom)+ stem-like glial cells at the origin of cNFs that can be amplified and propagated for the long periods. Briefly, skin from young mutant (NF1−/−) and control (NF1+/−) mice was dissected, dissociated and cell suspension incubated in the non-adherent condition with the presence of two mitogens, FGF and EGF. In such conditions only stem-like cells survive, proliferate and form compact multicellular floating structures called neurospheres. Since, in addition to the Tom+ glial stem-like cells, skin contains various other types of stem cells (Tom−), the neurospheres are composed of the intermingled Tom+ and Tom− cells. While in the mutant condition, neurospheres contain Tom+, Nf1−/− and Tom−, Nf1+/+ cells, in the Nf1+/− control condition neurospheres are composed of Tom+, Nf1+/− and Tom−, Nf1+/+ cells. In this study we have analysed the drug effect in Tom+ from NF1−/− and NfF1+/− mice.
(§3) In the present study, floating sphere culture of Nf1+/−(Prss56Cre, R26Tom, Nf1flox/+) and Nf1−/− (Prss56Cre, R26Tom, Nf1flox/flox) glial cells isolated from newborn mouse skin were used. Then they are plated and treated and analysed independently. With this intent, Nf1+/− and Nf1−/− spheres were amplified until passage 3 (1 passage corresponds to 7 days of culture). At the end of PO (10 days), cells were split into 4 identical batches (clones 1-4), and were amplified to P3 (FIG. 1).
(§4) At the end of P3, spheres from each clone were dissociated and cells transferred into two 12 well plates. 6 different concentrations (100 μm, 33 μm, 10 μm, 3 μm, 1 μm and 0 μm) of drug were added and cells were incubated for 72 h. An additional 12 well plate containing cells with DMSO (vehicle used for the drug resuspension) was used as a reference for the normalization of results. After 72 h analyses was performed the on the non-fixed cells: proliferative and cell death assay.
(§5) For the analysis of proliferative activity, a cell tracker lipophilic dye (CellTrace Proliferation Kit, Thermo Fishers) was used. The cell tacker was added at the same time as the drugs. Cells were incubated for 72 h and proliferative activity was measured by cytometry analysis using LSR Fortessa X20 (BD Biosciences). This method measures a mean fluorescence intensity (MIF) for each condition. The condition with DMSO was used as a reference.

Tom+ NF1+/− cells [2] = test: Proliferative activity (CellTrace, cytometry) in floating sphere culture, control cells; assay type: cell-based, mouse
Method: This study uses a Nf1-KO mouse strain(Prss56Cre/+, R26tdTom/+, NF1fl/fl) developing cutaneous neurofibromas (cNFs) that faithfully recapitulates human disease (Radomska et a., 2019). In this model, simultaneous bi-allelic loss of Nf1 and expression of Tomato fluorescent reporters were targeted into glial-stem like cells at the origin of cNFs. The assay was performed ex vivo using non-adherent cells in which Tomato expressing Nf1−/− and Nf1+/− stem-like cells from skin can be amplified, and their properties further characterized. […]
This in vitro culture system uses Tomato (Tom)+ stem-like glial cells at the origin of cNFs that can be amplified and propagated for the long periods. […] In this study we have analysed the drug effect in Tom+ from NF1−/− and NfF1+/− mice.
In the present study, floating sphere culture of Nf1+/−(Prss56Cre, R26Tom, Nf1flox/+) and Nf1−/− (Prss56Cre, R26Tom, Nf1flox/flox) glial cells isolated from newborn mouse skin were used. Then they are plated and treated and analysed independently. […]
as §5, with “The cell tacker was added at the same time as the drugs.” left out, “The condition with DMSO was used as a reference.” left out

Tom+ NF1−/− cells [3] = test: Cell death assay (DAPI, cytometry) in floating sphere culture, mutant cells; assay type: cell-based, mouse; conditions: for Ratio dead cells mean / Cell death of NF1−/− cells at highest concentration: 72 h; for Ratio dead cells mean: NF1−/− cells; for Cell death of NF1−/− cells at highest concentration: 100 μM, excluded from analysis
Method: as §1, §2, §3, §4
(§6) At 72 h of culture, cells were labelled for quantification of cell death using DAPI (4′,6-diamidino-2-phenylindole). Labelled cells were analyzed by cytometry with LSR Fortessa X20 (BD Biosciences).

Tom+ NF1+/− cells [4] = test: Cell death assay (DAPI, cytometry) in floating sphere culture, control cells; assay type: cell-based, mouse; conditions: for Cell death of NF1+/− cells at highest concentration: 100 μM, excluded from analysis
Method: as §1, §2, §3, §4, §6

[5] = system: cNF tumour cells (Tom+) in the skin of Nf1-KO mice; test: In vivo drug testing in Nf1-KO mice with established cNFs; parameters: species or system mouse; conditions: one month
Text: This study uses the same mouse model that was used for in vitro testing, the Prss56Cre/+, R26tdTom/+, NF1f/l mouse (Radomska et a., 2019). This study is a standard experimental design in the field with endpoints being terminal and not longitudinal throughout study.
Prss56Cre/+, R26tdTom/+, NF19/fl herein referred to as Nf1-KO mice develop cNFs after one year of age. However, cNF development occurs at an earlier age after skin injury induced by mice fighting, which is normal mouse behaviour. In this experiment, at least five six-week old Nf1-KO male mice were placed in a cage together, once the mice had sustained a level of skin injury via fighting they were removed from the cage and monitored. At approximately three months of age the mice that had sustained fighting injuries developed several cNFs. As a fluorescent reporter gene is turned on in cells that have Nf1 deleted, cNF development could be monitored via fluorescent imaging of the skin using an epifluorescent microscope (Leica MZ75). After 1-2 months mice that had established, mature cNFs were then enrolled into a drug treatment study. […]
Schwann cells that are Nf1-null also express the fluorescent reporter tomato (Tom+). cNFs are derived from Nf1-null SCs which are Tom+, therefore fluorescence can be used to identify tumours. […]

[6] = incubation with Selumetinib, concentration not given

## Cn1cnc2c(F)c(Nc3ccc(Br)cc3Cl)c(C(=O)NOCCO)cc21 [Selumetinib, 6-(4-bromo-2-chloroanilino)-7-fluoro-N-(2-hydroxyethoxy)-3-methylbenzimidazole-5-carboxamide]
Tom+ NF1−/− cells [1]; [6]
  Effect on proliferative activity of Nf1−/− (mutant) cells: decreases proliferative activity
Tom+ NF1+/− cells [2]; [6]
  Effect on proliferative activity of Nf1+/− cells: without affecting Nf1+/− cells
Tom+ NF1−/− cells [3]; [6]
  Effect on death of Nf1−/− (mutant) cells: promotes death of mutant
Tom+ NF1+/− cells [4]; [6]
  Effect on death of Nf1+/− cells: without affecting Nf1+/− cells

## O=[N+]([O-])c1ccc(O)c2ncccc12 [Nitroxoline, 5-nitroquinolin-8-ol]
Tom+ NF1−/− cells [1]; 1 μM, 72 h
  Ratio MIFmean (proliferation): 0,7+/−0,26
Tom+ NF1−/− cells [1]; 3 μM, 72 h
  Ratio MIFmean (proliferation): 0,60+/−0,22
Tom+ NF1−/− cells [1]; 10 μM, 72 h
  Ratio MIFmean (proliferation): 0,5+/−0,18
Tom+ NF1−/− cells [1]; 33 μM to 1 μM, 72 h, except clone 3
  Effect on proliferative activity of NF1−/− cells: reduced proliferative activity
Tom+ NF1−/− cells [1]; 33 μM, 72 h
  Ratio MIFmean (proliferation): 0,39+/−0,11
Tom+ NF1+/− cells [2]; 33 μM to 1 μM, 72 h
  Effect on proliferation of NF1+/− cells: not affected
Tom+ NF1−/− cells [3]; 10 μM
  Ratio dead cells mean: 2,04+/−0,63
Tom+ NF1−/− cells [3]; 33 μM
  Ratio dead cells mean: 8,86+/−0,66
Tom+ NF1−/− cells [3]
  Cell death of NF1−/− cells at highest concentration: massive cell death
Tom+ NF1−/− cells [3]; listed as nitroxoline
  Cell death of NF1−/− cells at highest concentration: massive nonspecific death
Tom+ NF1+/− cells [4]; 33 μM, 72 h
  Effect on cell death of NF1+/− cells: without affecting NF1+/− cells
Tom+ NF1+/− cells [4]; 72 h
  Cell death of NF1+/− cells at highest concentration: massive cell death
Tom+ NF1+/− cells [4]; 72 h, listed as nitroxoline
  Cell death of NF1+/− cells at highest concentration: massive nonspecific death
Tom+ NF1+/− cells [4]; lower concentrations (10 μM and below), 72 h
  Effect on cell death of NF1+/− cells (control conditions): without affecting control conditions
[5]; 120 mg/kg once daily
  Overall abundance of cNF tumour cells in the skin: reduces the overall abundance of cNF tumour cells
[5]; 120 mg/kg oral gavage once a day (5 days on, 2 days off)
  Tumour size versus vehicle treated mice (fluorescent imaging of Tom+ cells): smaller
